Measurements from patent publication US6521653B2 (priority 1995, dated 2003).
Converted amounts (≈) assume the structure as drawn.

tested on: Aspergillus niger; assay: Material protection test (MIC on malt extract agar); assay type: cell-based; settings: 336 h, two weeks at 28° C., 60 to 70% relative humidity, read-out: Minimal inhibitory concentration (MIC value) Aspergillus niger
Description: (§1) active compounds of the invention are added at concentrations of 0.1 mg/l to 5000 mg/l to an agar prepared with malt extract. After the agar has solidified, it is infected with pure cultures of Penicillium brevicaule, Chaetomium globosum and Aspergillus niger. After storage for two weeks at 28° C. and 60 to 70% relative humidity, the minimal inhibitory concentration (MIC value) is determined. The MIC value characterizes the lowest concentration of active compound at which there is no growth of the microbial species used.

Compound | MIC [µg/mL]
Cc1noc(C)c1C(=O)n1nnc2cc3c(cc21)OC(F)(F)C(F)(F)O3 | 400 (≈ 1070 µM)
Cc1oncc1S(=O)(=O)n1nnc2cc3c(cc21)OC(F)(F)C(F)(F)O3 [drawing 93] | 200 (≈ 507 µM)

tested on: Chaetomium globosum; assay: as above; assay type: cell-based; settings: 336 h, two weeks at 28° C., 60 to 70% relative humidity, read-out: Minimal inhibitory concentration (MIC value) Chaetomium globosum
Description: as §1

Compound | MIC [µg/mL]
Cc1noc(C)c1C(=O)n1nnc2cc3c(cc21)OC(F)(F)C(F)(F)O3 | 100 (≈ 269 µM)
Cc1oncc1S(=O)(=O)n1nnc2cc3c(cc21)OC(F)(F)C(F)(F)O3 [drawing 93] | 100 (≈ 254 µM)

tested on: Penicillium brevicaule; assay: as above; assay type: cell-based; settings: 336 h, two weeks at 28° C., 60 to 70% relative humidity, read-out: Minimal inhibitory concentration (MIC value) Penicillium brevicaule
Description: as §1

Compound | MIC [µg/mL]
Cc1noc(C)c1C(=O)n1nnc2cc3c(cc21)OC(F)(F)C(F)(F)O3 | 200 (≈ 537 µM)
Cc1oncc1S(=O)(=O)n1nnc2cc3c(cc21)OC(F)(F)C(F)(F)O3 [drawing 93] | 200 (≈ 507 µM)

tested on: Phytophthora infestans; assay: whole plant or invertebrate; assay type: in vivo; settings: Phytophthora infestans, in Solanum lycopersicum, 72 h, read-out: Efficiency in %, based on the untreated control at an active compound concentration of 50 ppm

Compound | pest or weed control at 50 ppm [%]
Cc1onc(N)c1S(=O)(=O)n1nnc2cc3c(cc21)OC(F)(F)O3 | 97
Cc1noc(C)c1S(=O)(=O)n1nnc2c(Br)cc(C(F)(F)F)cc21 [drawing 102] | 89
Cc1noc(C)c1S(=O)(=O)n1nnc2ccccc21 | 97
Cc1noc(C)c1S(=O)(=O)n1nnc2cc(Cl)ccc21 | 100
Cc1noc(C)c1S(=O)(=O)n1nnc2cc3c(cc21)OC(F)(F)C(F)(F)O3 [drawing 100] | 95
Cc1onc(N)c1S(=O)(=O)n1nnc2cc(Cl)ccc21 | 97
Cc1noc(C)c1S(=O)(=O)n1nnc2cc([N+](=O)[O-])ccc21 | 100
Cc1noc(C)c1S(=O)(=O)n1nnc2cc3c(cc21)OC(F)(F)O3 [drawing 101] | 99
Cc1oncc1S(=O)(=O)n1nnc2c(Br)cc(C(F)(F)F)cc21 | 98
Cc1oncc1S(=O)(=O)n1nnc2cc3c(cc21)OC(F)(F)O3 [drawing 103] | 100
Cc1ccc2c(c1)nnn2S(=O)(=O)c1c(C)noc1C | 97

same assay, conditions: tomato, protective spray, 100 ppm, evaluation 3 days after inoculation

Compound | Efficiency in %, based on the untreated control at an active compound concentration of 100 ppm [%]
Cc1noc(C)c1S(=O)(=O)n1nnc2cc3c(cc21)OC(F)(F)C(F)(F)O3 [drawing 95] | 94
Cc1oncc1S(=O)(=O)n1nnc2cc3c(cc21)OC(F)(F)C(F)(F)O3 [drawing 98] | 94
Cc1oncc1S(=O)(=O)n1nnc2cc3c(cc21)OC(F)(F)O3 [drawing 99] | 99
Cc1noc(C)c1S(=O)(=O)n1nnc2cc3c(cc21)OC(F)(F)O3 [drawing 96] | 94
Cc1noc(C)c1S(=O)(=O)n1nnc2c(Br)cc(C(F)(F)F)cc21 [drawing 97] | 95

tested on: Plasmopara viticola; assay: Plasmopara test (grapevines)/protective; assay type: in vivo; settings: protective spray, evaluation 6 days after inoculation
Description: Plasmopara Test (Grapevines)/Protective
Solvent: 4.7 parts by weight of acetone
Emulsifier: 0.3 parts by weight of alkylaryl polyglycol ether
To obtain an expedient preparation of active compound, 1 part by weight of active compound is mixed with the amounts of solvent and emulsifier cited and the concentrate is diluted with water to the desired concentration.
To test for protective activity, young plants are sprayed with the active compound preparation until dew moist. After the sprayed coating has dried on, the plants are inoculated with an aqueous spore suspension of Plasmopara viticola and then remain for 1 day in a moist chamber at 20 to 22° C. and 100% relative humidity. The plants are then set up for 5 days in a greenhouse at 21° C. and approximately 90% relative humidity. The plants are then moistened and placed in a moist chamber for 1 day.
The evaluation is performed 6 days after the inoculation. In the evaluation, 0% denotes an efficiency corresponding to that of the untreated control, while an efficiency of 100% denotes that no contamination is observed.

Compound | Efficiency in %, based on the untreated control at an active compound concentration of 100 ppm [%]
Cc1noc(C)c1S(=O)(=O)n1nnc2cc3c(cc21)OC(F)(F)C(F)(F)O3 [drawing 111] | 100
Cc1noc(C)c1S(=O)(=O)n1nnc2cc3c(cc21)OC(F)(F)O3 [drawing 112] | 100
Cc1oncc1S(=O)(=O)n1nnc2cc3c(cc21)OC(F)(F)C(F)(F)O3 [drawing 113] | 100
Cc1oncc1S(=O)(=O)n1nnc2cc3c(cc21)OC(F)(F)O3 [drawing 114] | 100
